US20210115104A1, “AMYLIN ANALOGUES” (Zealand Pharma A/S, priority 2015, published 2021)
*1 amine or outer side, *2 acyl side, *3 side chain or, on linkers, in order; H or OH if unused. Where a SMILES comes first, the peptide text is derived from it. Bridges are numbered along the chain shown (N, C = ends). [ ]: non-standard residue; d: D form. The star is where a group is joined. C20 diacid = O=C(O)CCCCCCCCCCCCCCCCCCC(=O)*; γGlu = O=C(O)[C@H](CCC(=O)[*:2])N[*:1]; Hyp = O=C(O)[C@@H]1C[C@@H](O)CN1; NMeI = CC[C@H](C)[C@H](NC)C(=O)O; Aad = N[C@@H](CCCC(=O)O)C(=O)O; Sar = CNCC(=O)O

How the values were obtained:
[1] = Assessment of chemical stability (RP-HPLC normalized purity); assay type: physicochemical; conditions: 7 days, 40° C., Table 1; for Normalized purity after 7 days, 40° C., pH 4: pH 4, 0.2 mg/ml; for Normalized purity after 7 days, 40° C., pH 6: pH 6, 0.2 mg/ml; for Normalized purity after 7 days, 40° C., pH 7.5: pH 7.5, 0.2 mg/ml; for Normalized purity after 7 days, 40° C., pH 9: pH 9, 0.2 mg/ml
Summary of the method: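 Purity after 7 days at 40° C is expressed relative to T=0 (set to 100) for each pH. Samples at 0.2 mg/ml, pH 4, 6, 7.5 or 9, analyzed by RP-HPLC with UV 220 nm on C8 (ammonium formate) or C18 (TFA) gradients.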

[2] = target: T1, human calcitonin receptor (hCTR2) (Homo sapiens, UniProt P30988); assay: hCTR2 cAMP assay (AlphaScreen) in COS7 cells; assay type: cell-based; conditions: cAMP induction, COS7 cells expressing hCTR2; Table 1; read-out: hCTR2 EC50
T1 construct: expressed in transfected cells
T1 sequence (P30988 25-474): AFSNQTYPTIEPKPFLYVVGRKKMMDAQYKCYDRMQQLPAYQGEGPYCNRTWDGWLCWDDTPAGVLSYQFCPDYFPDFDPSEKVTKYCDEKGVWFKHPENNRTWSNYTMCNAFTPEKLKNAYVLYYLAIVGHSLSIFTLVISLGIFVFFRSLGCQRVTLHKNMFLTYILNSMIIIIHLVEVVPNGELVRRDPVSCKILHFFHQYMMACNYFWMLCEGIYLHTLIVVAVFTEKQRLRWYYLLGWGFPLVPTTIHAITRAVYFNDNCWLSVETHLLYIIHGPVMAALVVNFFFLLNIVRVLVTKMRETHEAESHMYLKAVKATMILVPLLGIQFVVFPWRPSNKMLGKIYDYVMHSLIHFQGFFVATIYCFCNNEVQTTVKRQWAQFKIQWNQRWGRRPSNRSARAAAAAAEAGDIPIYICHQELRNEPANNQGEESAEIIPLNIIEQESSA
Summary of the method: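 cAMP induction, read by AlphaScreen after lysis, gives EC50 values via 4PL curve fitting. Peptides were applied at rising concentrations for 15 min at 37 °C, with IBMX and 0.1% casein in HEPES-buffered Tyrode pH 7.4, to COS7 cells (no endogenous RAMPs) stably expressing human CTR2.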

[3] = target: T2, human amylin receptor 3 (hAMYR3), hCTR2 co-expressed with hRAMP3 (Homo sapiens, UniProt O60896+P30988); assay: hAMYR3 cAMP assay (AlphaScreen) in COS7 cells; assay type: cell-based; conditions: cAMP induction, COS7 cells expressing hAMYR3; Table 1; read-out: hAMYR3 EC50
T2 construct: expressed in transfected cells
T2 sequence (P30988 25-474): T1 sequence (P30988 25-474)
T2 sequence (O60896 24-148 partner): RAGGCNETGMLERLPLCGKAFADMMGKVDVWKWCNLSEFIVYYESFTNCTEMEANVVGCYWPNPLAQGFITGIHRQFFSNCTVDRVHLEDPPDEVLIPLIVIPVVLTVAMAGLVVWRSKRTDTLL
Summary of the method: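 EC50 values derive from 4PL curve fits of cAMP (AlphaScreen) in lysates of RAMP-naive COS7 cells stably carrying hCTR2 plus hRAMP3. Peptide dilution series were applied for 15 min at 37 °C in pH 7.4 Tyrode buffer containing 100 µM IBMX and 0.1% casein.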

SMILES	Normalized purity after 7 days, 40° C., pH 4 [1]	Normalized purity after 7 days, 40° C., pH 6 [1]	Normalized purity after 7 days, 40° C., pH 7.5 [1]	Normalized purity after 7 days, 40° C., pH 9 [1]	EC50 [2]	EC50 [3]
CC[C@H](C)[C@@H](C(=O)N[C@@H](CC(C)C)C(=O)N[C@@H](CO)C(=O)N[C@@H](CO)C(=O)N[C@H](C(=O)N[C@@H](CCC(=O)O)C(=O)N[C@H](C(=O)NCC(=O)N[C@@H](CO)C(=O)N[C@@H](CO)C(=O)N[C@H](C(=O)N1C[C@H](O)C[C@H]1C(N)=O)[C@@H](C)O)C(C)C)[C@@H](C)O)N(C)C(=O)[C@H](C)NC(=O)CN(C)C(=O)[C@H](Cc1ccccc1)NC(=O)[C@H](CO)NC(=O)[C@H](CO)NC(=O)[C@H](CCCNC(=N)N)NC(=O)[C@@H](NC(=O)[C@H](CC(C)C)NC(=O)[C@H](Cc1ccccc1)NC(=O)[C@H](CCCC(=O)O)NC(=O)[C@H](C)NC(=O)[C@H](CC(C)C)NC(=O)[C@H](CCCNC(=N)N)NC(=O)[C@H](CCC(=O)O)NC(=O)[C@@H](NC(=O)[C@H](C)NC(=O)[C@@H]1CSSC[C@H](NC(=O)[C@H](CCCNC(=N)N)NC(=O)CC[C@H](NC(=O)CCCCCCCCCCCCCCCCCCC(=O)O)C(=O)O)C(=O)NCC(=O)N[C@@H]([C@@H](C)O)C(=O)N[C@@H](C)C(=O)N[C@@H]([C@@H](C)O)C(=O)N1)[C@@H](C)O)[C@@H](C)O [Compound 43, [19CD]-isoGlu-R-C( )-GTAT-C( )-ATERLA-Aad-FLTRSSF-Gly(Me)-A-Ile(Me)-LSSTEVGSST-Hyp-NH2] ({C20 diacid-γGlu}-RCGTATCATERLA[Aad]FLTRSSF[Sar]A[NMeI]LSSTEVGSST[Hyp]-NH2; disulfide 2-7)	A (A = >90%)	A (A = >90%)	A (A = >90%)	A (A = >90%)	220 pM	350 pM
CC[C@H](C)[C@@H](C(=O)N[C@@H](CC(C)C)C(=O)N[C@@H](CO)C(=O)N[C@@H](CO)C(=O)N[C@H](C(=O)N[C@@H](CCC(=O)O)C(=O)N[C@H](C(=O)NCC(=O)N[C@@H](CO)C(=O)N[C@@H](CC(N)=O)C(=O)N[C@H](C(=O)N1CCC[C@H]1C(N)=O)[C@@H](C)O)C(C)C)[C@@H](C)O)N(C)C(=O)[C@H](C)NC(=O)CN(C)C(=O)[C@H](Cc1ccccc1)NC(=O)[C@H](CO)NC(=O)[C@H](CO)NC(=O)[C@H](CCCNC(=N)N)NC(=O)[C@H](CCC(N)=O)NC(=O)[C@H](CC(C)C)NC(=O)[C@H](Cc1ccccc1)NC(=O)[C@H](CC(=O)O)NC(=O)[C@H](C)NC(=O)[C@H](CC(C)C)NC(=O)[C@H](CCCNC(=N)N)NC(=O)[C@H](CCC(N)=O)NC(=O)[C@@H](NC(=O)[C@H](C)NC(=O)[C@@H]1CSSC[C@H](NC(=O)[C@H](CCCNC(=N)N)NC(=O)CC[C@H](NC(=O)CCCCCCCCCCCCCCCCCCC(=O)O)C(=O)O)C(=O)N[C@@H](CC(N)=O)C(=O)N[C@@H]([C@@H](C)O)C(=O)N[C@@H](C)C(=O)N[C@@H]([C@@H](C)O)C(=O)N1)[C@@H](C)O [Compound 65, [19CD]-isoGlu-R-C( )-NTAT-C( )-ATQRLADFLQRSSF-Gly(Me)-A-Ile(Me)-LSSTEVGSNTP-NH2] ({C20 diacid-γGlu}-RCNTATCATQRLADFLQRSSF[Sar]A[NMeI]LSSTEVGSNTP-NH2; disulfide 2-7)	A (A = >90%)	A (A = >90%)	A (A = >90%)	A (A = >90%)	140 pM	260 pM
CC[C@H](C)[C@@H](C(=O)N[C@@H](CC(C)C)C(=O)N[C@@H](CO)C(=O)N[C@@H](CO)C(=O)N[C@H](C(=O)N[C@@H](CCC(=O)O)C(=O)N[C@H](C(=O)NCC(=O)N[C@@H](CO)C(=O)N[C@@H](CO)C(=O)N[C@H](C(=O)N1C[C@H](O)C[C@H]1C(N)=O)[C@@H](C)O)C(C)C)[C@@H](C)O)N(C)C(=O)[C@H](C)NC(=O)CN(C)C(=O)[C@H](Cc1ccccc1)NC(=O)[C@H](CO)NC(=O)[C@H](CO)NC(=O)[C@H](CCCNC(=N)N)NC(=O)[C@H](CCC(N)=O)NC(=O)[C@H](CC(C)C)NC(=O)[C@H](Cc1ccccc1)NC(=O)[C@H](Cc1c[nH]cn1)NC(=O)[C@H](C)NC(=O)[C@H](CC(C)C)NC(=O)[C@H](CCCNC(=N)N)NC(=O)[C@H](CCC(N)=O)NC(=O)[C@@H](NC(=O)[C@H](C)NC(=O)[C@@H]1CSSC[C@H](NC(=O)[C@H](CCCNC(=N)N)NC(=O)CC[C@H](NC(=O)CCCCCCCCCCCCCCCCCCC(=O)O)C(=O)O)C(=O)N[C@@H](CC(N)=O)C(=O)N[C@@H]([C@@H](C)O)C(=O)N[C@@H](C)C(=O)N[C@@H]([C@@H](C)O)C(=O)N1)[C@@H](C)O [Compound 69, [19CD]-isoGlu-R-C( )-NTAT-C( )-ATQRLAHFLQRSSF-Gly(Me)-A-Ile(Me)-LSSTEVGSST-Hyp-NH2] ({C20 diacid-γGlu}-RCNTATCATQRLAHFLQRSSF[Sar]A[NMeI]LSSTEVGSST[Hyp]-NH2; disulfide 2-7)	A (A = >90%)	A (A = >90%)	B (B = 70-90%)	B (B = 70-90%)	120 pM	170 pM
CC[C@H](C)[C@@H](C(=O)N[C@@H](CC(C)C)C(=O)N[C@@H](CO)C(=O)N[C@@H](CO)C(=O)N[C@H](C(=O)N[C@@H](CCC(=O)O)C(=O)N[C@H](C(=O)NCC(=O)N[C@@H](CO)C(=O)NCC(=O)N[C@H](C(=O)N1CCC[C@H]1C(N)=O)[C@@H](C)O)C(C)C)[C@@H](C)O)N(C)C(=O)[C@H](C)NC(=O)CN(C)C(=O)[C@H](Cc1ccccc1)NC(=O)[C@H](CO)NC(=O)[C@H](CO)NC(=O)[C@H](CCCNC(=N)N)NC(=O)[C@H](CCC(N)=O)NC(=O)[C@H](CC(C)C)NC(=O)[C@H](Cc1ccccc1)NC(=O)[C@H](CC(=O)O)NC(=O)[C@H](C)NC(=O)[C@H](CC(C)C)NC(=O)[C@H](CCCNC(=N)N)NC(=O)[C@H](CCC(N)=O)NC(=O)[C@@H](NC(=O)[C@H](C)NC(=O)[C@@H]1CSSC[C@H](NC(=O)[C@H](CCCNC(=N)N)NC(=O)CC[C@H](NC(=O)CCCCCCCCCCCCCCCCCCC(=O)O)C(=O)O)C(=O)N[C@@H](CC(N)=O)C(=O)N[C@@H]([C@@H](C)O)C(=O)N[C@@H](C)C(=O)N[C@@H]([C@@H](C)O)C(=O)N1)[C@@H](C)O [Compound 80, [19CD]-isoGlu-R-C( )-NTAT-C( )-ATQRLADFLQRSSF-Gly(Me)-A-Ile(Me)-LSSTEVGSGTP-NH2] ({C20 diacid-γGlu}-RCNTATCATQRLADFLQRSSF[Sar]A[NMeI]LSSTEVGSGTP-NH2; disulfide 2-7)	A (A = >90%)	A (A = >90%)	A (A = >90%)	A (A = >90%)	130 pM	280 pM
CC[C@H](C)[C@@H](C(=O)N[C@@H](CC(C)C)C(=O)N[C@@H](CO)C(=O)N[C@@H](CO)C(=O)N[C@H](C(=O)N[C@@H](CCC(=O)O)C(=O)N[C@H](C(=O)NCC(=O)N[C@@H](CO)C(=O)NCC(=O)N[C@H](C(=O)N1C[C@H](O)C[C@H]1C(N)=O)[C@@H](C)O)C(C)C)[C@@H](C)O)N(C)C(=O)[C@H](C)NC(=O)CN(C)C(=O)[C@H](Cc1ccccc1)NC(=O)[C@H](CO)NC(=O)[C@H](CO)NC(=O)[C@H](CCCNC(=N)N)NC(=O)[C@H](CCC(N)=O)NC(=O)[C@H](CC(C)C)NC(=O)[C@H](Cc1ccccc1)NC(=O)[C@H](CC(=O)O)NC(=O)[C@H](C)NC(=O)[C@H](CC(C)C)NC(=O)[C@H](CCCNC(=N)N)NC(=O)[C@H](CCC(N)=O)NC(=O)[C@@H](NC(=O)[C@H](C)NC(=O)[C@@H]1CSSC[C@H](NC(=O)[C@H](CCCNC(=N)N)NC(=O)CC[C@H](NC(=O)CCCCCCCCCCCCCCCCCCC(=O)O)C(=O)O)C(=O)N[C@@H](CC(N)=O)C(=O)N[C@@H]([C@@H](C)O)C(=O)N[C@@H](C)C(=O)N[C@@H]([C@@H](C)O)C(=O)N1)[C@@H](C)O [Compound 81, [19CD]-isoGlu-R-C( )-NTAT-C( )-ATQRLADFLQRSSF-Gly(Me)-A-Ile(Me)-LSSTEVGSGT-Hyp-NH2] ({C20 diacid-γGlu}-RCNTATCATQRLADFLQRSSF[Sar]A[NMeI]LSSTEVGSGT[Hyp]-NH2; disulfide 2-7)	A (A = >90%)	A (A = >90%)	A (A = >90%)	A (A = >90%)	100 pM	230 pM
